Our source for the solubility values is EP1448559B1, “5-(4-(2-(N-METHYL-N-(2-PYRIDYL)AMINO)ETHOXY)BENZYL)THIAZOLIDINE-2,4-DIONE BENZENESULFONATE; PROCESS FOR ITS PREPARATION; POLYMORPHS I, II AND III THEREOF; AND ITS USE AS PHARMACEUTICAL ACTIVE INGREDIENT” (SMITHKLINE BEECHAM PLC, priority 2001, dated 2003).

Molecules are shown by their SMILES.

The solubility is how much of the substance goes into solution per volume.

This data set is described as follows: Solubility in water (visual, confirmed by HPLC assay of a saturated solution).

On to `CN(CCOc1ccc(CC2SC(=O)NC2=O)cc1)c1ccccn1` (centres unmarked) [Benzenesulfonate propan-2-ol solvate, 5-[4-[2-(N-Methyl-N-(2-pyridyl)amino)ethoxy]benzyl]thiazolidine-2,4-dione benzenesulfonate propan-2-ol solvate], for which the solubility (water) was found to be 1600 µg/mL.

Take `CN(CCOc1ccc(CC2SC(=O)NC2=O)cc1)c1ccccn1` (centres unmarked) [Benzenesulfonate Form II, 5-[4-[2-(N-Methyl-N-(2-pyridyl)amino)ethoxy]benzyl]thiazolidine-2,4-dione benzenesulfonate Form II]: under “water added in aliquots from 1 to 1000ml to approximately 100mg of drug substance, confirmed by HPLC assay of a saturated solution”, the solubility is 1400 µg/mL.
